Assay results published in US10144708B2, “Crystalline arylalkylamine compound and process for producing the same” (MITSUBISHI TANABE PHARMA CORPORATION, priority 2013, dated 2018).

How the values were obtained:
Type in all cases: physicochemical
[1] = Stability test: storage of Compound (A) and salts thereof, total increase in amounts of related substance; conditions: for Total increase in amounts of related substance (%): storage 60° C., 1 Week; for Increase in the amounts of related substance on storage (in words): storage conditions of Table 3 (60° C., Natural or 75% RH, 1 Week)
Description: Compound (A) and salts thereof were stored under the storage conditions described in Table 3, and the total increase in the amounts of related substance was measured.

[2] = Determination of crystal form stable at room temperature (form A and form B suspended together in chloroform, powder X-ray diffractometry); conditions: equal amounts of form A and form B suspended in chloroform, stirred at room temperature overnight
Description: Equal amounts of the form A crystal and the form B crystal of Compound (A) were added to the same container and were suspended in chloroform. The suspension was stirred at room temperature overnight. Thereafter, the suspended matter was filtered off and was analyzed by powder X-ray diffractometry to determine the type of the crystal form.

[3] = Stability test: storage of Compound (A) and salts thereof, total increase in amounts of related substance; conditions: conditions of No. 16 of Table 3: 60° C., 75% RH, 1 Week
[4] = Natural humidity, hydrochloride

Compound: C[C@@H](N[C@H]1CCN(c2ccc(CC(=O)O)cc2)C1)c1cccc2ccccc12 [Compound (A) Crystal (Form B), 4-(3S-(1R-(1-naphthyl)ethylamino)pyrrolidin-1-yl)phenylacetic acid (form B crystal)]
- Total increase in amounts of related substance (%) ([1]; 75% RH): 0.00%
- Total increase in amounts of related substance (%) ([1]; Natural humidity): 0.00%
- Increase in the amounts of related substance on storage (in words) ([1]; listed as form B crystal of Compound (A)): did not show a marked increase

Compound: C[C@@H](N[C@H]1CCN(c2ccc(CC(=O)O)cc2)C1)c1cccc2ccccc12.Cl [Compound (A) 1.5HCl Amorphous, 4-(3S-(1R-(1-naphthyl)ethylamino)pyrrolidin-1-yl)phenylacetic acid-1.5 hydrochloride]
- Total increase in amounts of related substance (%) ([1]; 75% RH, hydrochloride): 3.11%
- Total increase in amounts of related substance (%) [1, 4]: 8.21%
- Increase in the amounts of related substance on storage (in words) ([1]; listed as amorphous Compound (A).1.5 hydrochloride, hydrochloride): significantly increased

Compound: C[C@@H](N[C@H]1CCN(c2ccc(CC(=O)O)cc2)C1)c1cccc2ccccc12 [Compound (A) Crystal (Form A), 4-(3S-(1R-(1-naphthyl)ethylamino)pyrrolidin-1-yl)phenylacetic acid (form A crystal)]
- Total increase in amounts of related substance (%) ([1]; 75% RH): 0.01%
- Total increase in amounts of related substance (%) ([1]; Natural humidity): 0.03%
- Increase in the amounts of related substance on storage (in words) ([1]; listed as form A crystal of Compound (A)): did not show a marked increase
- Crystal form stable at room temperature [2]: more stable at room temperature

Compound: C[C@@H](N[C@H]1CCN(c2ccc(CC(=O)O)cc2)C1)c1cccc2ccccc12.Cl [Compound (A) 1.7HCl Amorphous, 4-(3S-(1R-(1-naphthyl)ethylamino)pyrrolidin-1-yl)phenylacetic acid.1.7 hydrochloride]
- Total increase in amounts of related substance (%) ([1]; 75% RH, hydrochloride): 3.06%
- Total increase in amounts of related substance (%) [1, 4]: 8.33%
- Increase in the amounts of related substance on storage (in words) ([1]; listed as amorphous Compound (A).1.7 hydrochloride, hydrochloride): significantly increased

Compound: C[C@@H](N[C@H]1CCN(c2ccc(CC(=O)O)cc2)C1)c1cccc2ccccc12 [Compound (A) Amorphous, 4-(3S-(1R-(1-naphthyl)ethylamino)pyrrolidin-1-yl)phenylacetic acid (amorphous)]
- Total increase in amounts of related substance (%) ([1]; 75% RH): 14.16%
- Total increase in amounts of related substance (%) ([1]; Natural humidity): 3.32%
- Increase in the amounts of related substance on storage (in words) ([1]; listed as amorphous Compound (A)): significantly increased

Compound: C[C@@H](N[C@H]1CCN(c2ccc(CC(=O)O)cc2)C1)c1cccc2ccccc12.Cl [Compound (A) 1HCl Crystal, 4-(3S-(1R-(1-naphthyl)ethylamino)pyrrolidin-1-yl)phenylacetic acid-monohydrochloride]
- Total increase in amounts of related substance (%) ([1]; 75% RH): 1.02%
- Total increase in amounts of related substance (%) ([1]; Natural humidity): 0.18%
- Increase in the amounts of related substance on storage (in words) ([1]; listed as Compound (A).monohydrochloride): increase in the amounts of related substance was observed

Compound: Br.C[C@@H](N[C@H]1CCN(c2ccc(CC(=O)O)cc2)C1)c1cccc2ccccc12 [Compound (A) 1HBr Crystal, 4-(3S-(1R-(1-naphthyl)ethylamino)pyrrolidin-1-yl)phenylacetic acid.monohydrobromide]
- Total increase in amounts of related substance (%) ([1]; 75% RH): 0.13%
- Total increase in amounts of related substance (%) ([1]; Natural humidity): 0.21%
- Increase in the amounts of related substance on storage (in words) [1]: increase in the amounts of related substance was observed

Compound: C1CCOC1.C[C@@H](N[C@H]1CCN(c2ccc(CC(=O)O)cc2)C1)c1cccc2ccccc12.Cl [Compound (A) 1HCl•1THF Crystal, 4-(3S-(1R-(1-naphthyl)ethylamino)pyrrolidin-1-yl)phenylacetic acid.monohydrochloride.monotetrahydrofuran solvate]
- Change of solid form on storage [3]: conversion thereof into Compound (A).monohydrochloride (crystal)
- Total increase in amounts of related substance (%) ([1]; 75% RH): 1.04%
- Total increase in amounts of related substance (%) ([1]; Natural humidity): 0.75%
- Increase in the amounts of related substance on storage (in words) [1]: increase in the amounts of related substance was observed
